Measured values published in BindingDB's records for doi:10.1016/s0960-894x(01)00039-7 (Glaxosmithkline, 2001).

Target: Tyrosine--tRNA ligase (Staphylococcus aureus)
Assay: Inhibitory activity against Staphylococcus aureus tyrosyl tRNA synthetase (YRS) using aminoacylation assay

IC50: 260 nM
Compound: N[C@@H](Cc1ccc(O)cc1)C(=O)N[C@@H](C(=O)O)[C@@H]1OC[C@H](O)[C@H](O)[C@H]1O [[2-Amino-3-((S)-4-hydroxy-phenyl)-propionylamino]-((2S,3R,4S,5S)-3,4,5-trihydroxy-tetrahydro-pyran-2-yl)-acetic acid]
